Measurements: patent US9073916B2, “Prodrug forms of kinase inhibitors and their use in therapy” (AUCKLAND UNISERVICES LIMITED, priority 2009, dated 2015)
Where two headings read alike, the source gives them in different places.

Key:
[1] = Plasma and A431 tumour pharmacokinetics of compounds 11 and 20
Protocol: A small piece (˜100 mg) of tissue was placed in biopulveriser well (previously cooled in liquid nitrogen) and reduced to fine powder with a 2-3 strong blows to the stainless steel pestle. The frozen powder was collected in pre-weighed microcentrifuge tube (kept on dry ice). […] The microcentrifuge tubes were spun at 13,000 rpm for 10 min to precipitate the cell debris and proteins. […] The analytes were eluted using a gradient of 0.01% formic acid in acetonitrile (80%)-water (20%) mixture and 0.01% formic acid in water (100%) on Zorbax SB 018, rapid resolution HT 3.0×50 mm, 1.8 micron (Agilent) HPLC column with a flow rate of 0.6 ml/min.

erbB1^T790M = erbB1^T790M (Homo sapiens, UniProt P00533, T790M); test: Isolated enzyme inhibition (Invitrogen Z′-LYTE kinase assay); assay type: biochemical; settings: 10 μM ATP, duplicate
[2] = Hypoxia-selective reduction of prodrug 20 in cell free media; assay type: in vitro ADME; settings: cell free media containing 5% fetal calf serum, hypoxic
erbB1 = erbB1 (Homo sapiens, UniProt P00533); test: Cellular erbB1 inhibition: irreversibility wash-out assay in A431 cells; settings: 1 μM, 1 hour exposure, then EGF stimulation
erbB4 = erbB4 (Homo sapiens, UniProt Q15303); test: Isolated enzyme inhibition (Invitrogen Z′-LYTE kinase assay); assay type: biochemical; settings: 10 μM ATP, duplicate
erbB2 [3] = molecular target: T1, erbB2 (Homo sapiens, UniProt P04626); test: as above; assay type: biochemical; settings: 10 μM ATP, duplicate
A431 cells = test: Oxic and hypoxic cellular metabolism of prodrug 20; assay type: in vitro ADME, Human; settings: 10 uM prodrug
Protocol: (§1) A431 and SKOV3 cells were grown in a 175 flask and seeded at 40K, a density which gave an 80-90% confluent cell layer after 7 days growth. Cells were washed with PBS, harvested with 0.05% trypsin/EDTA, centrifuged at 1000 rpm for 5 mins at room temperature and re-suspended in a 1 mL of cell culture medium (α-MEM containing 10% FCS, 10 mM D-Glucose and 0.2 mM 2′-deoxycytidine). Cell numbers were determined with the Coulter counter and the appropriate number of cells was transferred to a new tube. 5×10^5 cells per well were plated into wells of a 24-well plate in a total volume of 350 μL/well (i.e. 14.3×10^5 cells/mL). Cells were incubated at 37° C. for two hours to attach to the wells and for anoxic samples to equilibrate. […] The cells were incubated for 1, 2 or 3 hours at 37° C. At the appropriate time the 24 well plate was removed from the incubator/anoxic chamber and placed on ice. The contents of each well was transferred to the microcentrifuge tube kept on ice. 800 μL of acetonitrile (spiked with D6 internal standards of compounds 11 and 20, each 0.5 uM) was added to each of the drug treated wells to allow efficient extraction from the cell monolayer. Then the entire contents (1200 uL=400+800 uL) was vortex mixed and transferred to −80° C. for storage until they were run on the LC-MS/MS system. A similar procedure was followed for the control samples. […]

SKOV3 cells [4] = test: Oxic and hypoxic cellular metabolism of prodrug 20; assay type: in vitro ADME, Human; settings: 10 uM prodrug
Protocol: as §1

SKOV3 cells [5] = test: Cellular growth inhibition (sulforhodamine B); assay type: cell-based, Human; settings: Table 9; for IC50: Homo sapiens, SK-OV-3
H1975 xenografts = test: In vivo efficacy in H1975 xenografts; set-up: species or system mice
[6] = Plasma and tissue pharmacokinetics of prodrug 42 in H1975 tumour bearing mice; assay type: in vivo; settings: female, NIH-III, mouse, 20 umol/kg, single iv dose of 42 at 20 μmol/kg
Protocol: Compound 42 was dosed at a nominal low dose of 20 μmol/kg to nine female NIH-III mice bearing H1975 tumour xenografts, as a solution in DMSO/5% dextrose (20:80) via intravenous injection. […] The frozen powders were then collected in pre-weighed microcentrifuge tubes (kept on dry ice). Four volumes of ice cold acetonitrile (containing 0.5 μM D6-161 as an internal standard) was added to each sample to extract the drug from the tissue powder. […] To 10 μL of plasma (collected in EDTA) was added 40 μL of ice cold acetonitrile (containing 0.5 μM D6-161 as an internal standard). The resulting solution was mixed and then centrifuged at 13,000 rpm for 5 min.

in vivo = settings: female, NIH-III nude, mouse, ip, pH 4
erbB2 [7] = molecular target: T1, erbB2; test: Inhibition of basal phospho-erbB2 in SKOV3 cells (Western blot); assay type: cell-based; set-up: endogenous in cells; host or cells: SKOV3 human ovarian carcinoma cells; settings: Table 8
Source text: Values are plotted using SigmaPlot 10.

[8] = Chemical stability by HPLC; settings: HPLC after 24 h at 37° C.
[9] = single ip dose of 20 at 133 umol/kg

T1 sequence (P04626 23-1255): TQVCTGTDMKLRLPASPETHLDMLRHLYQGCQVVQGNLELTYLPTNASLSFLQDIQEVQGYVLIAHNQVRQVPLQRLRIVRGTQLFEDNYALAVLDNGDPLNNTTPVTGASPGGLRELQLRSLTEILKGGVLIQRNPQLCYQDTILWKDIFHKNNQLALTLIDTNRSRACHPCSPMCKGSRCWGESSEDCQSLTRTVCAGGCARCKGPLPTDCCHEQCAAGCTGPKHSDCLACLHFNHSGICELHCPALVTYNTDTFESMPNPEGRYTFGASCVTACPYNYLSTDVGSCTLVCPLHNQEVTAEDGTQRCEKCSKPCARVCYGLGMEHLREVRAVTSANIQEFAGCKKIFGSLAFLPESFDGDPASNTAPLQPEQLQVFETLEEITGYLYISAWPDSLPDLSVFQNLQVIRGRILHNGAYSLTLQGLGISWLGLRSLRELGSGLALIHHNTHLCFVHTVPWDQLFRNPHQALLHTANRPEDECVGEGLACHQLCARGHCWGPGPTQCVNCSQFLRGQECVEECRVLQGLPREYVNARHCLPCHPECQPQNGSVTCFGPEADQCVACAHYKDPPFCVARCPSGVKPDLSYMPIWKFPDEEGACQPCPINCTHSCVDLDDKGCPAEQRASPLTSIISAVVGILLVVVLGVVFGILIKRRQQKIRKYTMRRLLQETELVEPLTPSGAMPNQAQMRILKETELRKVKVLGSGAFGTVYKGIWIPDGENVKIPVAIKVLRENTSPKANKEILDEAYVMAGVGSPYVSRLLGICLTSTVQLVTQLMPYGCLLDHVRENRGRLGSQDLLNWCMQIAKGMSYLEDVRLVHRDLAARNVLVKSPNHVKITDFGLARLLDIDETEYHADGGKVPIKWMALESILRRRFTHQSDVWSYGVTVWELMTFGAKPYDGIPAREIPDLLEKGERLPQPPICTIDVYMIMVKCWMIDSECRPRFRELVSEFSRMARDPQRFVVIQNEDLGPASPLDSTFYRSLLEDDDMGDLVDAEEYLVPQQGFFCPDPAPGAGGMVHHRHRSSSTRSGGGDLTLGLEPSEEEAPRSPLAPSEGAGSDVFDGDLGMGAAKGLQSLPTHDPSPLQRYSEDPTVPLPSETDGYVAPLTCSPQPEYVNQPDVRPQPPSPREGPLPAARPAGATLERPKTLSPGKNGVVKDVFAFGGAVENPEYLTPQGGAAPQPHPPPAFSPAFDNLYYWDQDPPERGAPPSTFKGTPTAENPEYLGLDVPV
erbB1, sequence (P00533 25-1210): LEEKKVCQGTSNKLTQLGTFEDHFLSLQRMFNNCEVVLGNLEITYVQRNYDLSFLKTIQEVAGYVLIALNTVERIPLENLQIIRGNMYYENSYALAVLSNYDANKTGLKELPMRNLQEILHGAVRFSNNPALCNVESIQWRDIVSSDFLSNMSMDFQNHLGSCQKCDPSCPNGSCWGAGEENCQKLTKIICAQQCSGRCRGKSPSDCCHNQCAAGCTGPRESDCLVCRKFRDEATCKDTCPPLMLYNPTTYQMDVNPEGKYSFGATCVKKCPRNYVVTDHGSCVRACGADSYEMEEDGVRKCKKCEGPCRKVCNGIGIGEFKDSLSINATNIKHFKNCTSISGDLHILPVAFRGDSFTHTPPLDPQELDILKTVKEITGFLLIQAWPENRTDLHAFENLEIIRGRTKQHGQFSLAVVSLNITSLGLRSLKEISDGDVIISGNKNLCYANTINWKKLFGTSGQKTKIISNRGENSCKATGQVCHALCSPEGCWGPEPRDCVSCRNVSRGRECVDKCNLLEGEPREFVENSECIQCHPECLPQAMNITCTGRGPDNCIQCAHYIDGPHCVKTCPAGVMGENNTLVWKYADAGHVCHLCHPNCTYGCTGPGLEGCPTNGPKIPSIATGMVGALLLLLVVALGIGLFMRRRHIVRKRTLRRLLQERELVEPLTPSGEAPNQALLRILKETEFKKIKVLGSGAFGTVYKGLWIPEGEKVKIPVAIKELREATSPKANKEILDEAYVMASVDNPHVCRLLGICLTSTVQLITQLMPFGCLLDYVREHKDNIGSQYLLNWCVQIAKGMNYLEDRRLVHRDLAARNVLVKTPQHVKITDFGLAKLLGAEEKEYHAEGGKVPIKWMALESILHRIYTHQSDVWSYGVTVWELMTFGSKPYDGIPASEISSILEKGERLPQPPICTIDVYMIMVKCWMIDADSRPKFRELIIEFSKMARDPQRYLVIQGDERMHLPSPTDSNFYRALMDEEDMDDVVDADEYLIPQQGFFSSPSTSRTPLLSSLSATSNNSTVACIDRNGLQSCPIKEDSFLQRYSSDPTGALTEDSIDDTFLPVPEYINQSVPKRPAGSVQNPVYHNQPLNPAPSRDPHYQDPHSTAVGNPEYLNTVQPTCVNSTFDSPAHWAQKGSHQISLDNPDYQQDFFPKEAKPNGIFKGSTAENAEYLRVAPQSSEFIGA
erbB4, sequence (Q15303 26-1308): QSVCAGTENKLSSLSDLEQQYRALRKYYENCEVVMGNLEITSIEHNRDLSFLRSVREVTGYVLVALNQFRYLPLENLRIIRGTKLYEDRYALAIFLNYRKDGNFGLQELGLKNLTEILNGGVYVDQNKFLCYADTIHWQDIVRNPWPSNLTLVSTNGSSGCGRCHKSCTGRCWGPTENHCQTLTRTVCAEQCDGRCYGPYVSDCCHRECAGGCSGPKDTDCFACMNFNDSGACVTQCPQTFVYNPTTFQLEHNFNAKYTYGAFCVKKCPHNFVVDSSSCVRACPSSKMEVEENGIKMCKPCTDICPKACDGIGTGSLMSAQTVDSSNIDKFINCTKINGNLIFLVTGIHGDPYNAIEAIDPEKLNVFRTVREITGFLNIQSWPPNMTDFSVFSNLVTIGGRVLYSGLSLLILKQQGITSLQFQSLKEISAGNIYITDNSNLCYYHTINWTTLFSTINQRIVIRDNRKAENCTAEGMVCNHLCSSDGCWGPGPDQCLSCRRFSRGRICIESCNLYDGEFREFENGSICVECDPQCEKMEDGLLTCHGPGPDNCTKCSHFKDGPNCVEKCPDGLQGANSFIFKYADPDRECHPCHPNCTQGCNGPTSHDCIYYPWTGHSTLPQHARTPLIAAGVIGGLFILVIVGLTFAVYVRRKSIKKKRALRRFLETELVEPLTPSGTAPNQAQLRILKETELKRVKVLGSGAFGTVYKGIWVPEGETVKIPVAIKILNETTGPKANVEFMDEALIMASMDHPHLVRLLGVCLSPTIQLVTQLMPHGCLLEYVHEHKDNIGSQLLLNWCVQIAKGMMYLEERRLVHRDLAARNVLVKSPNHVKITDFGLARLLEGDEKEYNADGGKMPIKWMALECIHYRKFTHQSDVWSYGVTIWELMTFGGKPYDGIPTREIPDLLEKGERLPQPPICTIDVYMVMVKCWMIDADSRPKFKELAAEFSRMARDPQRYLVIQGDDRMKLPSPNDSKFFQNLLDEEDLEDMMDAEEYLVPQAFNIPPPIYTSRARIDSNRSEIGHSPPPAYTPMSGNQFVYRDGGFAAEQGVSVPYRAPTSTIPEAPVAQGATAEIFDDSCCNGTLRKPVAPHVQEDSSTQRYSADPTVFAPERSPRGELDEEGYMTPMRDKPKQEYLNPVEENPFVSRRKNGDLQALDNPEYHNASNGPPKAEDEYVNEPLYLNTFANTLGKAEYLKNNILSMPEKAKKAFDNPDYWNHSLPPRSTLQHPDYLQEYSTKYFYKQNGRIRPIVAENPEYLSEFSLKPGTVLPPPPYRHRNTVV
erbB1^T790M, sequence (P00533 25-1210 T790M): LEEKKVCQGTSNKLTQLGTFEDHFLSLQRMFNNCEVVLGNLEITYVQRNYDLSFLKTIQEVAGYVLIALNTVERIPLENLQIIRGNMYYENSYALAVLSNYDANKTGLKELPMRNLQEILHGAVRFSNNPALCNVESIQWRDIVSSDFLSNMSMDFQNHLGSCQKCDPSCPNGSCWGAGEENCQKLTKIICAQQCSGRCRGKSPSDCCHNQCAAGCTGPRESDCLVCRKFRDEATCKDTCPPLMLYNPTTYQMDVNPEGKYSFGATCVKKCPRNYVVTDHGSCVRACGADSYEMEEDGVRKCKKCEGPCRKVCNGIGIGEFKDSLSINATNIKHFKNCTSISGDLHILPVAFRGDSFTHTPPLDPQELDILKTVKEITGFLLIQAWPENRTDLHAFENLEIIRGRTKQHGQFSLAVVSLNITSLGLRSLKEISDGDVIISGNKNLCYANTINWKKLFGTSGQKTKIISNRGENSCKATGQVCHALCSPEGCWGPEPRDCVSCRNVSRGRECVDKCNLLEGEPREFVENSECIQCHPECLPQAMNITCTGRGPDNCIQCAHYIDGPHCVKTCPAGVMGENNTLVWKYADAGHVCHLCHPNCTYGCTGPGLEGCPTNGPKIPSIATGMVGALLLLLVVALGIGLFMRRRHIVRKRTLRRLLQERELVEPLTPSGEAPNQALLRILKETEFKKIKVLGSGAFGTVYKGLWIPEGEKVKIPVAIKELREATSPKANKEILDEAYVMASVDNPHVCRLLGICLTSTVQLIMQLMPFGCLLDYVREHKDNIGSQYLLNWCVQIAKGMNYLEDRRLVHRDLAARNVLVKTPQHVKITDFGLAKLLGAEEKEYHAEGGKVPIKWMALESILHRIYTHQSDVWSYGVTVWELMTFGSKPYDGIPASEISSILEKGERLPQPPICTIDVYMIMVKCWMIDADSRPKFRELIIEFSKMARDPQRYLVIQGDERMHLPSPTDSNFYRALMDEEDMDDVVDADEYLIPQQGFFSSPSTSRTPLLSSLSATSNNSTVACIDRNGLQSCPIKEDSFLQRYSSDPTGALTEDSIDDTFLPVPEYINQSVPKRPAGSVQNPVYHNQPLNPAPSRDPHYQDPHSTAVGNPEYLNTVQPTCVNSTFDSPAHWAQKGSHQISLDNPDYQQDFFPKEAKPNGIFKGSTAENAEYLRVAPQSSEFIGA

With `Cn1cnc([N+](=O)[O-])c1C[N+](C)(C)C/C=C/C(=O)Nc1ccc2ncnc(Nc3cccc(Br)c3)c2c1.[Br-]` [Compound 20, (2E)-4-{[4-(3-bromoanilino)-6-quinazolinyl]amino}-N,N-dimethyl-N-[(1-methyl-4-nitro-1H-imidazol-5-yl)methyl]-4-oxo-2-buten-1-ammonium bromide] the “effector AUC as share of prodrug AUC” value (compound 11 in plasma after dosing prodrug 20) was “one”, the “AUC0-250 min Effector” value (effector (compound 11) in plasma after dosing prodrug) was 2.7 µM·h and the “AUC0-250 min Parent” value (plasma, IP, 42% of single dose MTD, predicted from modelled curves) was 279 µM·h. For the same molecule, the “stable tumour tissue concentration” value ([1]; prodrug 20, out to 72 h) was about 30 µmol/kg, the “tumour AUC0-72h” value ([1]; prodrug 20 at 133 umol/kg ip, A431 tumour) was 2245 µmol·h/kg and the “plasma AUC0-72h” value ([1]; prodrug 20 dosed at 133 umol/kg ip) was 2016 µM·h. For the same molecule, the “AUC0-72 hr A431 Tumour, Compound 20” value [1, 9] was 2245 µM·h, the “AUC0-72 hr Plasma, Compound 20” value [1, 9] was 2016 µM·h and the IC50 (erbB1^T790M) was 0.594 µM. For the same molecule, the “rate of release of inhibitor 11” value [2] was 62 pmol/h, the “erbB1 autophosphorylation, cells not washed free of drug” value (erbB1) was “not completely inhibited” and the IC50 (erbB4) was 0.085 µM. For the same molecule, the IC50 (erbB2 [3]) was 0.112 µM, the “rate of hypoxic metabolism to inhibitor 11” value (A431 cells) was 200 pmol/hour/million cells and the “rate of hypoxic metabolism to inhibitor 11” value (SKOV3 cells [4]) was 500 pmol/hour/million cells.

With `Cn1cnc([N+](=O)[O-])c1C[N+](C)(C)C/C=C/C(=O)Nc1cc2c(Nc3ccc(F)c(Br)c3)ncnc2cn1` [Compound 42, (2E)-4-{[4-(3-bromo-4-fluoroanilino)pyrido[3,4-d]pyrimidin-6-yl]amino}-N,N-dimethyl-N-[(1-methyl-4-nitro-1H-imidazol-5-yl)methyl]-4-oxo-2-buten-1-ammonium bromide] the IC50 (SKOV3 cells [5]; 24 hour exposure oxic, read-out: Cellular Growth Inhibition IC50 SKOV3 Oxic) was 35.5 µM, the IC50 (SKOV3 cells [5]; first 4 hours anoxic, read-out: Cellular Growth Inhibition IC50 SKOV3 Anoxic) was 2.85 µM and the “SKOV3 Deact.” value (SKOV3 cells [5]) was 42 fold. The “SKOV3 HCR” value (SKOV3 cells [5]) was 20.3 fold, the “tumour growth inhibition (TGI)” value (H1975 xenografts; H1975 xenografts, equitoxic dose 133 (42) and 42.2 (161) μmol/kg/dose, q3dx4, IP) was 188% and the “tumour growth inhibition (TGI)” value (H1975 xenografts; H1975 xenografts, q3dx4 at respective MTD, IP) was 229%. For the same molecule, the “tumour growth inhibition (TGI)” value (H1975 xenografts; large H1975 xenografts, 75 umol/kg/dose, q3dx8, IP) was 154%, the “tumour growth inhibition (TGI)” value (H1975 xenografts; large H1975 xenografts, 100 umol/kg/dose, q3dx8, IP) was 213% and the “tumour growth inhibition (TGI)” value (H1975 xenografts; large H1975 xenografts, 133 umol/kg/dose, q3dx8, IP) was 275%. For the same molecule, the AUC(0-t) ([6]; H1975 tumour, read-out: AUC0-24 hr H1975 Tumour, 42) was 123 µM·h, the AUC(0-t) ([6]; liver, read-out: AUC0-24 hr Liver, 42) was 256 µM·h and the AUC(0-t) ([6]; plasma, read-out: AUC0-24 hr Plasma, 42) was 24.7 µM·h. The AUC(0-t) ([6]; skin, read-out: AUC0-24 hr Skin, 42) was 198 µM·h, the MTD (in vivo) was 133 µmol/kg and the “Deact. erbB2 (fold reduction in cellular inhibition relative to the parent kinase inhibitor)” value (erbB2 [7]; SKOV3 cells) was 35 fold. The IC50 (erbB2 [7]; basal phospho-erbB2 in SKOV3 cells, read-out: Cellular Enzyme Inhibition IC50 erbB2) was 0.212 µM, the “Stability PBS (percentage parent remaining)” value [8] was 77% and the “Stability Water (percentage parent remaining)” value [8] was 98%. The “Stability α-MEM + FCS (5%) (percentage parent remaining)” value [8] was 61%.
